In patent US9682960B2 (priority 2013, dated 2017):
Where two headings read alike, the source gives them in different places.

Key:
[1] = system: Shionogi mouse mammary carcinoma cells; experiment: In vitro androgenic/antiandrogenic activity: proliferation of Shionogi cells with or without DHT; assay type: cell-based; conditions: Mus musculus
[2] = target: Human Androgen Receptor (Homo sapiens (Human), UniProt P10275); experiment: Androgen receptor assay: [3H]R1881 displacement, cytosol of HEK-293 cells transfected with hAR (hydroxylapatite assay); assay type: binding; conditions: relative binding affinity, R1881 = 100
Chain of Human Androgen Receptor (P10275 whole entry): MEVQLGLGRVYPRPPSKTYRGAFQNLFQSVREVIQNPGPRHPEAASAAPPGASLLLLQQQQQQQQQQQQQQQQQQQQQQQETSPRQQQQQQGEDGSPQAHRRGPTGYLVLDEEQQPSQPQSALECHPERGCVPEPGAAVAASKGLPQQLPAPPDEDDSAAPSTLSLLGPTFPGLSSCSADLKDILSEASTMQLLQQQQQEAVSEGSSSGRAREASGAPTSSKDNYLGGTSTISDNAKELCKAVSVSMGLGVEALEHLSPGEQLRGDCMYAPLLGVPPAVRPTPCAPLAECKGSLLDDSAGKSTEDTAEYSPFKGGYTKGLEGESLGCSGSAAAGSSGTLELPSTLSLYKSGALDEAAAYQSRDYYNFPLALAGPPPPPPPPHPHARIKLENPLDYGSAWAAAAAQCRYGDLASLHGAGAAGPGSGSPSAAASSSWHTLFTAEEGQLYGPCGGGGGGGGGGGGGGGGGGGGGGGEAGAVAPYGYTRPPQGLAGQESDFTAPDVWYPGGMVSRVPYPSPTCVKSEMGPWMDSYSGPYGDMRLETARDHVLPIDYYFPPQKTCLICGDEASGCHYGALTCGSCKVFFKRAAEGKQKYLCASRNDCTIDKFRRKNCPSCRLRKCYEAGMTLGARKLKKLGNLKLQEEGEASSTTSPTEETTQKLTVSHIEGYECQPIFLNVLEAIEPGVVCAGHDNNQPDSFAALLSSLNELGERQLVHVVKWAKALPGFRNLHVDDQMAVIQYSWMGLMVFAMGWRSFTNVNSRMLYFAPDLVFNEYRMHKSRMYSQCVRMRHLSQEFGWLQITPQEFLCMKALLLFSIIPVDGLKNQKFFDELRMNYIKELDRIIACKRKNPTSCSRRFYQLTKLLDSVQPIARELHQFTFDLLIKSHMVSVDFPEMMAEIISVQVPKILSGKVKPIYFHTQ

[3] = system: castrated (CX) immature male rats; experiment: Systemic androgenic (agonistic) activity in orchidectomized (CX) immature male rats; assay type: in vivo, rat; conditions: 0.1 mg/rat/po, 7 days; for CX Agonistic activity % Stimulation Bulbo: bulbocavernosus muscles weight; for CX Agonistic activity % Stimulation SV: seminal vesicles weight; for CX Agonistic activity % Stimulation Prostate: ventral prostate weight
Protocol: Immature male rats (Crl:CD(SD)Br) 22 to 24-day old weighting 60-80 g at start of treatment were obtained from Charles-River, Inc. (St-Constant, Quebec, Canada) and housed up to 5 per cage in plastic bins in a temperature (23±1° C.)- and light (12 h light/day, lights on at 7 h15)-controlled environment. The rats were fed rodent chow and tap water ad libitum. […] The day following their arrival, the designed animals were orchidectomized (CX) under Isoflurane anesthesia (Study Day 1) via the scrotal route and were then randomly assigned to groups of 3 to 5 animals. At the time of orchidectomy, one silastic implant of dihydrotestosterone (DHT; 1 cm length of pure DHT in silastic tubing having inner and outer diameter of 0.078 and 0.125 inches, respectively), was inserted subcutaneously in the dorsal area of animals assigned to the evaluation of antiandrogenic activity. In the case of intact animal experiments, the orchidectomy and the silastic implant installation are omitted.
Tested compounds were administered orally once daily for 7 days from Study Day 2 to Study Day 8 at doses generally ranging from 0.1 and 0.5 mg/animal. Compounds were either solubilized in dimethylsulfoxide (DMSO, 10% final concentration) and were administered as a solution/suspension in 0.9% NaCl-1% gelatin or were administered as suspensions in 0.4% aqueous methylcellulose. Animals of the control groups received the corresponding vehicle alone during the 7-day period. Some animals were treated with the antiandrogen Flutamide or Casodex as reference. The animals under isoflurane anesthesia were killed by cervical dislocation on day 9 of the study, approximately 24 h after the last dosing. The ventral prostate, seminal vesicles and bulbocavernosus muscles were rapidly dissected and weighed.
For calculations with intact animals, control DHT is replaced by control intact and the % stimulation is subtracted by 100%. W is the weight of the prostate, seminal vesicles or bulbocavernosus muscles. Discussion

[4] = read-out: Shionogi Antiandrogenic Activity IC50, DHT (0.3 nM)-stimulated cell number
[5] = DHT (0.3 nM)-stimulated cell number, read-out: Shionogi Antiandrogenic Activity IC50

| SMILES | IC50 [1, 4] [nM] | Human Androgen Receptor Binding RBA (%) R1881 = 100 ([2]; […]) | CX Agonistic activity % Stimulation Bulbo [3] | CX Agonistic activity % Stimulation SV [3] | CX Agonistic activity % Stimulation Prostate [3] | IC50 [1, 5] [nM] | Human Androgen Receptor Binding RBA (%) R1881 = 100 ([2]; transfected cells) |
| --- | --- | --- | --- | --- | --- | --- | --- |
| Cc1c(N2C(=O)C(C)(C)N(CCCOc3ccc(-c4cccnc4)cc3)C2=S)ccc(C#N)c1Cl [EM-8656] | > 100 | 477 ± 16 (n = 2) % | 73% | 24% | 38% |  |  |
| Cc1c(N2C(=O)C(C)(C)N(CCCOc3ccc(-c4ccncc4)cc3)C2=S)ccc(C#N)c1Cl [EM-8664] | > 100 | 664% | 177% | 66% | 62% |  |  |
| Cc1c(N2C(=O)C(C)(C)N(CCCOc3ccc(-c4cncnc4)cc3)C2=S)ccc(C#N)c1Cl [EM-8685] | > 100 | 144% | 136% | 20% | 41% |  |  |
| Cc1c(N2C(=O)C(C)(C)N(CCCOc3ccc(-c4cccnc4)cc3F)C2=S)ccc(C#N)c1Cl [EM-8714] | 97 | 355% | 78% | 18% | 45% |  |  |
| Cc1c(N2C(=O)C(C)(C)N(CCCOc3ccc(-c4ccccn4)cc3F)C2=S)ccc(C#N)c1Cl [EM-8715] | 57.3 | 155% | 58% | 11% | 35% |  |  |
| Cc1c(N2C(=O)C(C)(C)N(CCCOc3ccc(-c4ccncc4)cc3F)C2=S)ccc(C#N)c1Cl [EM-8723] | 120 | 408% | 129% | 56% | 60% |  |  |
| Cc1c(N2C(=O)C(C)(C)N(CCCOc3ccc4ncccc4c3)C2=S)ccc(C#N)c1Cl [EM-8728] | 53.4 | 125.4% | 98% | 25% | 48% |  |  |
| Cc1c(N2C(=O)C(C)(C)N(CCCOc3ccc4cccnc4c3)C2=S)ccc(C#N)c1Cl [EM-8730] |  |  | 178% | 73% | 59% | 105 | 140.5% |
| Cc1c(N2C(=O)C(C)(C)N(CCCOc3ccc(-c4ccncc4)cc3C(F)(F)F)C2=S)ccc(C#N)c1C(F)(F)F [EM-8772] |  |  | 104% | 15% | 29% | 137 | 2.6% |
| Cc1c(N2C(=O)C(C)(C)N(CCCOc3ccc(-c4ccncc4)cc3C(F)(F)F)C2=S)ccc(C#N)c1Cl [EM-8773] | 125 | 28.1% | 123% | 30% | 30% |  |  |
| Cc1c(N2C(=O)N(CCCOc3ccc4cccnc4c3)C(C)(C)C2=O)ccc(C#N)c1Cl [EM-8786] | 191 ± 87 |  | 124 ± 32 (n = 2) % | 10 ± 10 (n = 2) % | 35 ± 10 (n = 2) % |  | 8.9 ± 0.2 (n = 2) % |
| Cc1c(N2C(=O)C(C)(C)N(CCCOc3ccc(-c4ccncc4)cc3F)C2=S)ccc(C#N)c1C(F)(F)F [EM-8793] | 48.2 |  | 139% | 42% | 29% |  | 412% |
| Cc1c(N2C(=O)C(C)(C)N(CCCOc3ccc(-c4ccncc4)c(F)c3)C2=S)ccc(C#N)c1Cl [EM-8796] | 188 | 698% | 168% | 127% | 58% |  |  |
